Experiments:
[1] = biological target: T1, Peptidyl-prolyl cis-trans isomerase A (Homo sapiens, UniProt P62937); assay: Binding affinity to human cyclophilin A assessed as compound-enzyme complex formation at 1:1 protein to compound ratio by NMR analysis
Target sequence in this assay (P62937 whole entry, looked up): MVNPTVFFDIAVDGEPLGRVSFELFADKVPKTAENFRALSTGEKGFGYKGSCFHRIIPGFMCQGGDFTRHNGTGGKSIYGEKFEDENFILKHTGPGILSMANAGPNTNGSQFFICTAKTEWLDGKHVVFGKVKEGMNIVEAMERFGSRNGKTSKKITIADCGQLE

[2] = biological target: T1, Peptidyl-prolyl cis-trans isomerase A; assay: Binding affinity to human cyclophilin A by intrinsic tryptophan fluorescence
Target sequence in this assay (P62937 whole entry): as the sequence (P62937 whole entry, looked up) above

| Structure (SMILES) | Activity [1] [%] | Kd [2] [nM] |
| --- | --- | --- |
| C/C=C/C[C@@H](C)[C@@H](O)[C@H]1C(=O)N[C@@H](CC)C(=O)N(C)[C@H](C)C(=O)N(CC)[C@@H](C(C)C)C(=O)N[C@@H](C(C)C)C(=O)N(C)[C@@H](CC(C)C)C(=O)N[C@@H](C)C(=O)N[C@H](C)C(=O)N(C)[C@@H](CC(C)C)C(=O)N(C)[C@@H](CC(C)C)C(=O)N(C)[C@@H](C(C)C)C(=O)N1C [ALISPORIVIR] | 59 | 11 |
| C/C=C/C[C@@H](C)[C@@H](O)[C@H]1C(=O)N[C@@H](CC)C(=O)N(C)CC(=O)N(C)[C@@H](C(C)C)C(=O)N[C@@H](C(C)C)C(=O)N(C)[C@@H](CC(C)C)C(=O)N[C@@H](C)C(=O)N[C@H](C)C(=O)N(C)[C@@H](CC(C)C)C(=O)N(C)[C@@H](CC(C)C)C(=O)N(C)[C@@H](C(C)C)C(=O)N1C | – | 11 |
| C/C=C/C[C@@H](C)[C@@H](O)[C@H]1C(=O)N[C@@H](CC)C(=O)N(C)CC(=O)N(C)[C@@H](CC(C)C)C(=O)N[C@@H](C(C)C)C(=O)N(C)[C@@H](CC(C)C)C(=O)N[C@@H](C)C(=O)N[C@H](C)C(=O)N(C)[C@@H](CC(C)C)C(=O)N(C)[C@@H](C(C)C)C(=O)N(C)[C@@H](C(C)C)C(=O)N1C | 53 | – |
